Assay results from patent publication US20150299801A1, “Techniques for Treating Acute Lymphoblastic Leukemia (ALL)” (THE TRUSTEES OF COLUMBIA UNIVERSITY IN THE CITY OF NEW YORK, priority 2012, published 2015).

What was measured:
[1] = test system: CCRF-CEM T-ALL cells expressing relapse-associated mutant NT5C2 alleles; assay: MTT cell viability and chemotherapy drug response, CCRF-CEM cells expressing mutant NT5C2; type: cell-based; conditions: for increase of IC50 for mutations versus control (RFP) or wild type (NT5C2 WT): CCRF-CEM cell line, NT5C2 R367Q, D407A; for resistance to therapy compared with empty vector and wild type NT5C2 controls: cells expressing NT5C2 K359Q, R367Q and D407A, increased drug concentrations; for IC50: Homo sapiens, CCRF-CEM cells expressing mutation (NT5C2 R367Q), read from graph, viability relative to vehicle treated cells, read-out: log concentration at which viability falls to 50% (converted)
Method: (§1) To formally test the role of NT5C2 mutations in chemotherapy resistance, the effects of wild type and relapse-associated mutant NT5C2 expression were analyzed in the response of CCRF-CEM T-ALL cells to 6-mercaptopurine (6-MP) and 6-thyogunanine (6-TG). Expression of NT5C2 mutations in ALL cells induces resistance to chemotherapy with 6-MP and 6-TG. Viability assays were performed in CCRF-CEM and CUTLL1 T-ALL cells expressing wild type NT5C2, relapse-associated mutant NT5C2 alleles, or a red fluorescent protein (RFP) as control, treated with increased concentrations of the nucleoside analog chemotherapeutic drugs.
(§2) CCRF-CEM and CUTLL1 cells were cultured in RPMI-1640 media supplemented with 10% fetal bovine serum, 100U/ml penicillin G and 100 ug/ml streptomycin at 37 C in a humidified atmosphere under 5% CO2. HEK293T were maintained under similar conditions in DMEM media.
(§3) The lentiviral constructs pLOC-NT5C2, pLOC-NT5C2 359, pLOC-I 367, pLOC-I 407 and the pLOC-RFP control plasmid were transfected with gag-pol and V-SVG expressing vectors into HEK293T cells using JetPEI transfection reagent (Polyplus, of Illkirch, France). Viral supernatants were collected after 48 h and used for infection of CCRF-CEM and CUTLL1 cells by spinoculation. After infection, cells were selected for 5 days in blasticidin and ficolled the day before experiments.
(§4) Cell viability was determined by measurement of the metabolic reduction of the tetrazolium salt MTT using the Cell Proliferation Kit I (Roche, of Indianapolis, Ind.) following the manufacturer instructions. Experiments were done in triplicates. Viability was analyzed after 48 or 72 hours of initiation of treatment with 6-mercaptopurine, 6-thioguanine, nelarabine and Ara-G.

[2] = test system: CUTLL1 T-ALL cells expressing relapse-associated mutant NT5C2 alleles; assay: MTT cell viability and chemotherapy drug response, CUTLL1 cells expressing mutant NT5C2; type: cell-based; conditions: for increase of IC50 for mutations versus control (RFP) or wild type (NT5C2 WT): CUTLL1 cell line, NT5C2 R367Q, D407A
Method: as §1, §2, §3, §4

[3] = test system: CCRF-CEM T-ALL cells expressing RFP control or wild type NT5C2; assay: MTT cell viability and chemotherapy drug response, CCRF-CEM control cells; type: cell-based; conditions: Homo sapiens; CCRF-CEM cells expressing RFP control or NT5C2 WT; read from graph; read-out: log concentration at which viability falls to 50% (converted)
Method: as §1, §2, §3, §4

[4] = test system: CUTLL1 T-ALL cells expressing RFP control or wild type NT5C2; assay: MTT cell viability and chemotherapy drug response, CUTLL1 control cells; type: cell-based; conditions: CUTLL1 cells expressing RFP control or NT5C2 WT; read from graph; read-out: log concentration at which viability falls to 50% (converted)
Method: as §1
CCRF-CEM and CUTLL1 cells were cultured in RPMI-1640 media supplemented with 10% fetal bovine serum, 100U/ml penicillin G and 100 ug/ml streptomycin at 37 C in a humidified atmosphere under 5% CO2. HEK293T were maintained under similar conditions in DMEM media. […]
as §4, with “Experiments were done in triplicates.” left out

NT5C2 WT = biological target: T1, NT5C2 WT (Homo sapiens, UniProt P49902); assay: 5'-nucleotidase activity as a function of ATP concentration, wild type; type: biochemical
T1 construct: Full length cDNA constructs encoding wild type NT5C2, NT5C2 K359Q, NT5C2 R367Q and NT5C2 D407A were cloned; His6 (N); made in house; host or cells: Rosetta 2(DE3) E. coli
Method: (§5) Biochemical nucleotidase assays measuring release of phosphate upon incubation of NT5C2 with phosphonucleodides were used, including a commercial kit that measures enzymatic activity. (See file DZ123A.php in subfolder reagents of folder products in the World Wide Web at domain diazyme in category corn.)
(§6) Full length cDNA constructs encoding wild type NT5C2, NT5C2 K359Q, NT5C2 R367Q and NT5C2 D407A were cloned with an N-terminal His6 tag in the pET28a-LIC expression vector using the In-Fusion HD PCR cloning system (Clontech, of Mountain View, Calif.), as per manufacturer's instructions. Recombinant proteins were expressed from Rosetta 2(DE3) E. coli cells by induction with 0.5 mM isopropyl-β-D-thiogalactopyranoside for 3 hours at 37° C. […] Protein expression and purity was assessed y SDS-PAGE and Coomassie staining.
(§7) 5′-Nucleotidase activity of purified recombinant wild type and mutant NT5C2 proteins was assessed using the 5′-nucleotidase (5′-NT) Enzymatic Test Kit (Diazyme, of Poway, Calif.), according to the manufacturer's instructions. […] H2O2 is quantified using a Trinder reaction. 5′-Nucleotidase activity levels are calculated using a calibrator of known 5′-NT activity as standard. Assays were performed in triplicate in an Infinite M200 Tecan (of Mannedorf, Switzerland) plate reader.

NT5C2 Q523X = biological target: T2, NT5C2 Q523X (Homo sapiens, UniProt P49902); assay: 5'-nucleotidase activity as a function of ATP concentration, Q523X; type: biochemical
T2 construct: His6 (N); made in house; host or cells: Rosetta 2(DE3) E. coli (described for WT, K359Q, R367Q, D407A)
T2 sequence (P49902 1-522 limits assumed): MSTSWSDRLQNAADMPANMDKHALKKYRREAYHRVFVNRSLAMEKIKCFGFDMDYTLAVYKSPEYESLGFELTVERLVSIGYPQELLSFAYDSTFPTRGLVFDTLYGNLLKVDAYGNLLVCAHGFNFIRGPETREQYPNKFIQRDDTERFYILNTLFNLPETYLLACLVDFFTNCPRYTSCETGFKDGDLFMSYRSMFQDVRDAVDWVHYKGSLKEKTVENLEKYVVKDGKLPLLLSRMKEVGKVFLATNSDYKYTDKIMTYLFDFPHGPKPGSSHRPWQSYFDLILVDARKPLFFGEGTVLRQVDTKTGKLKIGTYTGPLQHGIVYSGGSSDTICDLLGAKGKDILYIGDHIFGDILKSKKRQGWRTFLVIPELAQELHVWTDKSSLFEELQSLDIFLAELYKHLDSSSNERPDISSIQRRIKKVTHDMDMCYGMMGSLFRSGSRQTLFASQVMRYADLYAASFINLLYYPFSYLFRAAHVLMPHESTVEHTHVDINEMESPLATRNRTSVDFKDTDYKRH

[5] = test system: NT5C2 K359Q, R367Q, D407A, L375F, R238W; assay: 5'-nucleotidase activity as a function of ATP concentration, remaining mutations; type: biochemical, human
Method: as §5, §6, §7

NT5C2 R291W = biological target: T3, NT5C2 R291W (Homo sapiens, UniProt P49902, R291W); assay: 5'-nucleotidase activity as a function of ATP concentration, R291W; type: biochemical
T3 construct: His6 (N); made in house; host or cells: Rosetta 2(DE3) E. coli (described for WT, K359Q, R367Q, D407A)
T3 sequence (P49902 whole entry R291W): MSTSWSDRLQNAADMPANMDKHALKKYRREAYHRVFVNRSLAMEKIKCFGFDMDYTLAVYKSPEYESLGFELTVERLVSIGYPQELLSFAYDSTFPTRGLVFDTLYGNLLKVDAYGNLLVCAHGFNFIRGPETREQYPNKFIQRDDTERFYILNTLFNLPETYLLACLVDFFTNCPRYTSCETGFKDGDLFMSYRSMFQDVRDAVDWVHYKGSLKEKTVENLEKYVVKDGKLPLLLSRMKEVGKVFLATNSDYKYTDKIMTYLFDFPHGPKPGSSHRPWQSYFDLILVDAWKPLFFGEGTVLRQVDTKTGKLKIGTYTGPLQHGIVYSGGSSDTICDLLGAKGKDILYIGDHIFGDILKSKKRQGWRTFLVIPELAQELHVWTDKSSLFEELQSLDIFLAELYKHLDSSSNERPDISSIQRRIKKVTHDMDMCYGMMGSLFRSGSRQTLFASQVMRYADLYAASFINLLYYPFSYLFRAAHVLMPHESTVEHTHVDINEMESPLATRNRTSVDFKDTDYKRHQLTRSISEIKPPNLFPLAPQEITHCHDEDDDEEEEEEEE

[6] = read-out: A0.5, ATP concentration to achieve an activity equal to half Vmax

increase of IC50 for mutations versus control (RFP) or wild type (NT5C2 WT) [1] | IC50 [3] | IC50 [1] | SMILES | activity in cells expressing relapse-associated NT5C2 mutations compared to controls [1] | resistance to therapy compared with empty vector and wild type NT5C2 controls [1] | increase of IC50 for mutations versus control (RFP) or wild type (NT5C2 WT) [2] | IC50 [4] | other results
– | – | – | Nc1nc2c(ncn2[C@@H]2O[C@H](CO)[C@@H](O)[C@@H]2O)c(=O)[nH]1 [AraG] | equally active | – | – | – | –
greater than ten times as much | ~1 µM | – | Nc1nc2nc[nH]c2c(=S)[nH]1 [6-TG, 6-thioguanine] | – | increased resistance | about double | ~1 µM | IC50 ([2]; CUTLL1 cells expressing mutation NT5C2 R367Q, read from graph, read-out: log concentration at which viability falls to 50% (converted)): ~3.16 µM
– | – | – | Nc1ncnc2c1ncn2[C@@H]1O[C@H](COP(=O)(O)OP(=O)(O)OP(=O)(O)O)[C@@H](O)[C@H]1O [ATP] | – | – | – | – | 5'-NT activity relative to 0 mM ATP (factor of increase) (NT5C2 WT; ATP concentrations over 20 mM): over 60; EC50 (NT5C2 WT; [6]): 19500 µM; 5'-NT activity relative to 0 mM ATP (factor of increase) (NT5C2 Q523X): over 20; EC50 (NT5C2 Q523X; [6]): ~3000 µM; 5'-NT activity relative to 0 mM ATP ([5]; K359Q, R367Q, D407A, L375F, R238W): little change between reference activity and maximum activity; EC50 ([5]; remaining mutations, read-out: A0.5, ATP concentration to achieve an activity equal to half Vmax): < 1000 µM; 5'-NT activity relative to 0 mM ATP (factor of increase) (NT5C2 R291W): over 20; EC50 (NT5C2 R291W; [6]): ~4000 µM
about double | ~6.31 µM | ~10 µM | Sc1ncnc2nc[nH]c12 [6-MP, 6-mercaptopurine] | – | increased resistance | greater than ten times as much | ~6.31 µM | –
– | ~100 µM | ~100 µM | COc1nc(N)nc2c1ncn2[C@@H]1O[C@H](CO)[C@@H](O)[C@@H]1O [nelarabine] | equally active | – | – | – | –
